The values that follow are results of earlier work, collected in US20190358212A1, “USES OF EGFR/HER2 INHIBITOR COMBINED WITH PYRIMIDINE-TYPE ANTI-METABOLIC DRUG” (Jiangsu Hengrui Medicine Co., Ltd., priority 2017, published 2019).

Data set [1] concerns the target HER2 (Homo sapiens, UniProt P04626). The settings on record: CN102471312A.
For data set [2], the target named is EGFR (Homo sapiens, UniProt P00533). As to conditions: CN102471312A.
For data set [3], the system named is HER2+ metastatic breast cancer. The settings on record: J Clin Oncol 33, 2015 (suppl; abstr e11596).

Chain of EGFR (P00533 25-1210): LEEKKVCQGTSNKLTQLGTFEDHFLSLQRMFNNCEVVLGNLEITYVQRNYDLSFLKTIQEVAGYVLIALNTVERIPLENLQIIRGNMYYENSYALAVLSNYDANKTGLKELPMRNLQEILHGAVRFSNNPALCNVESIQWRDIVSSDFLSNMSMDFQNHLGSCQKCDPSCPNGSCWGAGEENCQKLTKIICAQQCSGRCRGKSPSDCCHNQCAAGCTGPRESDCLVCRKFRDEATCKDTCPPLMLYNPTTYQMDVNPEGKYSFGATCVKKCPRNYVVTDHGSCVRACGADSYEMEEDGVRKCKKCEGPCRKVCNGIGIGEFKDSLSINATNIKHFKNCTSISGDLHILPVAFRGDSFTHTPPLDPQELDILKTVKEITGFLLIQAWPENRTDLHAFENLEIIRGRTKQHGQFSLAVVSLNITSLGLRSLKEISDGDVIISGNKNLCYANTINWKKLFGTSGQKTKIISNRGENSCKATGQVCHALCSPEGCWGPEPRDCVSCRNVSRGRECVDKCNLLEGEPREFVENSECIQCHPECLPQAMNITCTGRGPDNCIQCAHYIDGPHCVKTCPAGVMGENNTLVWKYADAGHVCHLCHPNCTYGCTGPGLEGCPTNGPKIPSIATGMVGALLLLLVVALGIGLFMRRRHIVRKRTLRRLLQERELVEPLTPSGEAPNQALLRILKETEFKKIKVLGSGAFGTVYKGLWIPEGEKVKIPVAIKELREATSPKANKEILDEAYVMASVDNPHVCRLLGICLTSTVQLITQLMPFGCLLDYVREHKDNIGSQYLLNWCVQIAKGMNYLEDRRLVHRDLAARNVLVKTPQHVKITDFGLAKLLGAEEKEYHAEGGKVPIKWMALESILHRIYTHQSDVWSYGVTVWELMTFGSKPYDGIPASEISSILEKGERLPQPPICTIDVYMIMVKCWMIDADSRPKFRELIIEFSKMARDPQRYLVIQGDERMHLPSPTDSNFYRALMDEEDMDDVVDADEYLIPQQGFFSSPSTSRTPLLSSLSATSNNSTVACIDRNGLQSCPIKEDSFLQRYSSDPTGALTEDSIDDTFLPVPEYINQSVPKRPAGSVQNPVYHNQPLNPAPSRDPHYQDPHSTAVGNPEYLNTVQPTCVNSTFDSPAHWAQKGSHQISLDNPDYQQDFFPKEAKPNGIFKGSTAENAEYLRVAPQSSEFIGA
Chain of HER2 (P04626 23-1255): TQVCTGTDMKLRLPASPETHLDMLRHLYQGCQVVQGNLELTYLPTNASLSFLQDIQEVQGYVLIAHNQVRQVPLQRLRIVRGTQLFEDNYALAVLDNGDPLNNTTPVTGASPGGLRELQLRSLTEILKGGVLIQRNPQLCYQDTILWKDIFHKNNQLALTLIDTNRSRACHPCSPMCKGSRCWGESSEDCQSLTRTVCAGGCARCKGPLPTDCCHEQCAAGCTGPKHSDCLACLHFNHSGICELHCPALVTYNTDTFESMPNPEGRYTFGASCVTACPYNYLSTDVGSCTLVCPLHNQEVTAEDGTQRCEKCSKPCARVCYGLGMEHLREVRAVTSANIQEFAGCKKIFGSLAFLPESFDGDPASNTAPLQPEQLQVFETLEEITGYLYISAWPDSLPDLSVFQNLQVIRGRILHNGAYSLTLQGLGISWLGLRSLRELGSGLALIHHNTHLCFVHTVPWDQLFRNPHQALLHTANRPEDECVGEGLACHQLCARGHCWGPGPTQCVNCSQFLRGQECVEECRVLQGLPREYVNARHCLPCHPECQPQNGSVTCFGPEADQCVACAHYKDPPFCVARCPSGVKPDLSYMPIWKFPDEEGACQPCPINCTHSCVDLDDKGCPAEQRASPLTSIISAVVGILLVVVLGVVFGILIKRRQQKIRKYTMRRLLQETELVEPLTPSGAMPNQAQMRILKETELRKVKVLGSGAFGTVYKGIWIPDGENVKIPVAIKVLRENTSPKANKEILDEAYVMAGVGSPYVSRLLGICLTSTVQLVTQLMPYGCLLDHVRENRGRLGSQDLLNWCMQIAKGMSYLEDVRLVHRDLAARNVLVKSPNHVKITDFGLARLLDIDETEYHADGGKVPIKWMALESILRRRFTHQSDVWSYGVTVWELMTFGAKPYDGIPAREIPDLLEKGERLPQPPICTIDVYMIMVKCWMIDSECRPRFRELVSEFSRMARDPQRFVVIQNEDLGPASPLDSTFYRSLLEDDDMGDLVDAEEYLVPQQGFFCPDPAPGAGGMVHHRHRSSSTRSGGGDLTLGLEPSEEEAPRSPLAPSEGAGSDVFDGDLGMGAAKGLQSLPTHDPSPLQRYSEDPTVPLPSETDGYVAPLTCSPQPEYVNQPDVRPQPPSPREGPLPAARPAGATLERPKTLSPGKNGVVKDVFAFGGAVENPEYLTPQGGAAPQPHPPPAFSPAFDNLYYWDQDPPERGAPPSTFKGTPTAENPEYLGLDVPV

Take `CCOc1cc2ncc(C#N)c(Nc3ccc(OCc4ccccn4)c(Cl)c3)c2cc1NC(=O)/C=C/[C@H]1CCCN1C` [Compound A, (E)-N-[4-[[3-chloro-4-(2-pyridylmethoxy)phenyl]amino]-3-cyano-7-ethoxy-6-quinolyl]-3-[(2R)-1-methylpyrrolidin-2-yl]prop-2-enamide]: the “inhibition effect on HER2” value in data set [1] was “potent inhibition effect”. Further, the “inhibition effect on EGFR” value in data set [2] is “potent inhibition effect”. Further, the “effect on patients with HER2+ metastatic breast cancer” value in data set [3] is recorded as “a certain effect”.
